Literature values as cited in patent US6458386B1, “Medicaments based on polymers composed of methacrylamide-modified gelatin” (Innogenetics N.V., priority 1997, dated 2002).

Tests used:
[1] = tested on: large cutaneous burns; settings: children
[2] = tested on: chronic pressure ulcers; settings: humans
[3] = tested on: full thickness macular holes; settings: human eyes

Human Growth Hormone: hormone
wound healing of large cutaneous burns [1]: accelerate wound healing

Platelet Derived Growth Factor
wound healing of chronic pressure ulcers [2]: wound healing stimulator

Transforming Growth Factor-β
effect in treatment of full thickness macular holes [3]: beneficial effects
